The experiment addresses T1, Carboxypeptidase A1 (Bos taurus, UniProt P00730).
T1 sequence (P00730 whole entry): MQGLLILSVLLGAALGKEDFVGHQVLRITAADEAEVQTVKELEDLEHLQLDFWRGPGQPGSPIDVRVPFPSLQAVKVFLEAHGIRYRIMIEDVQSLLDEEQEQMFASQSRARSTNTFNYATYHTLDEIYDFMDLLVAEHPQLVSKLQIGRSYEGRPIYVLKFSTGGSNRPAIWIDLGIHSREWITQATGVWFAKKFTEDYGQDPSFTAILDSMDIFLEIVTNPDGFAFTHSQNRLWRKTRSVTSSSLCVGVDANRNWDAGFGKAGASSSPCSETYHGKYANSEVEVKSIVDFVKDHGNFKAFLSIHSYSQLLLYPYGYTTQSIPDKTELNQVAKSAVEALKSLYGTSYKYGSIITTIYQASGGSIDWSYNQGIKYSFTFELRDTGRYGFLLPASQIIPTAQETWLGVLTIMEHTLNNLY
In words: Compound was evaluated for binding affinity against carboxypeptidase A (CPA), expressed as inhibitory constant (Ki).
One may read the Ki as the equilibrium dissociation constant of an inhibitor or competing ligand from its target. A high value points to lower affinity. In the case of `O=C(O)C(CS)Cc1ccc(Cl)cc1` (centres undefined), the affinity, expressed as Ki, was 160 nM.
For the compound `CC(c1ccccc1)C(CS)C(=O)O` (centres undefined), the Ki worked out at 105 nM.
On to `CCC(c1ccccc1)C(CS)C(=O)O` (centres undefined), for which the affinity, expressed as Ki, was 1500 nM.
As for `O=C(O)C(CS)Cc1ccc(Br)cc1` (centres undefined), the Ki was found to be 150 nM.
